The results in this text go back to ChEMBL document CHEMBL2203093, “EC144 is a potent inhibitor of the heat shock protein 90” (J Med Chem, 2012).

A short description of series [1]: Tmax in CD-1 mouse at 25 mg/kg, po. Also on record: dose 25 mg/kg, route oral. Format: ADME, organism-based. Conditions: in vivo; call rule not given here.
Series [2] in a line: Tmax in DBA1 mouse lymph nodes at 5 mg/kg, po. The series is classed as ADME, organism-based, Lymph node. Also on record: dose 5 mg/kg, route oral.
The nature of series [3]: Cmax in DBA1 mouse plasma at 5 mg/kg, po. The series is classed as ADME, organism-based. Also on record: dose 5 mg/kg, route oral.
Series [4] in a line: Toxicity in po dosed mouse administered as a single dose. The series is classed as organism-based. As to conditions: in vivo.
Series [5] is described as follows: Tmax in DBA1 mouse brain at 5 mg/kg, po. Format: ADME, organism-based. The arrangement: dose 5 mg/kg, route oral.
Series [6] is described as follows: Intrinsic clearance in rat liver microsomes. The series is classed as ADME, Microsome. Conditions: read-out: CLH. For orientation: Liver microsomes are vesicles of endoplasmic reticulum, rich in cytochrome P450 enzymes.
A short description of series [7]: Intrinsic clearance in human liver microsomes. The series is classed as ADME, Microsome. As to conditions: read-out: CLH.
The test system of series [8] is Mus musculus. The series can be described thus: Dose normalized AUC in CD-1 mouse at 25 mg/kg, po. Format: ADME, organism-based. The arrangement: dose 25 mg/kg, route oral. As to conditions: in vivo.
Series [9] relates to Brain. The series can be described thus: Drug uptake in human NCI-N87 cell xenografted mouse brain at 6 to 12 mg/kg, po administered as a single dose at 6 to 24 hrs. Format: ADME, organism-based. Also on record: route oral. As to conditions: in vivo. (A xenograft is tissue or cells of one species grown in another, often human tumour cells in immunodeficient mice.)
Series [10] is described as follows: Half life in CD-1 mouse at 25 mg/kg, po. The series is classed as ADME, organism-based. Also on record: dose 25 mg/kg, route oral. As to conditions: in vivo.
Series [11] can be described thus: Toxicity in po dosed human N87 cell xenografted athymic mouse administered as qd for 5 days per week for 4 weeks. Format: organism-based, NCI-N87. As to conditions: in vivo.
A short description of series [12]: AUC (infinity) in DBA1 mouse brain at 5 mg/kg, po. The arrangement: dose 5 mg/kg, route oral, time infinity. Format: ADME, organism-based.
Series [13] concerns NCI-N87. The series is described as follows: Drug uptake in human NCI-N87 cells xenografted in mouse at 6 to 12 mg/kg, po administered as a single dose at 6 to 24 hrs. The series is classed as ADME, organism-based. Also on record: route oral. As to conditions: in vivo.
A short description of series [14]: Half life in DBA1 mouse lymph nodes at 5 mg/kg, po. The series is classed as ADME, organism-based, Lymph node. The arrangement: dose 5 mg/kg, route oral.
Series [15] is described as follows: Initial Cmax in CD-1 mouse at 25 mg/kg, po. Also on record: dose 25 mg/kg, route oral. As to conditions: in vivo. Format: ADME, organism-based.
A short description of series [16]: Intrinsic clearance in mouse liver microsomes. The series is classed as ADME, Microsome. As to conditions: read-out: CLH.
The nature of series [17]: AUC (infinity) in DBA1 mouse plasma at 5 mg/kg, po. Format: ADME, organism-based. The arrangement: dose 5 mg/kg, route oral, time infinity.
The subject of series [18] is Serum. The series can be described thus: Drug uptake in human NCI-N87 cell xenografted mouse serum at 6 to 12 mg/kg, po administered as a single dose at 6 to 24 hrs. Also on record: route oral. Conditions: in vivo. Format: ADME, organism-based.
Series [19] is described as follows: Apparent permeability from apical to basolateral side of human Caco2 cells. Format: ADME, cell-based. As to conditions: Caco-2. (Caco-2 monolayers are a common model of the intestinal barrier.)
Series [20] in a line: Half life in DBA1 mouse plasma at 5 mg/kg, po. The series is classed as ADME, organism-based. The arrangement: dose 5 mg/kg, route oral.
Series [21] can be described thus: Cmax in DBA1 mouse lymph nodes at 5 mg/kg, po. Format: ADME, organism-based, Lymph node. The arrangement: dose 5 mg/kg, route oral.
The nature of series [22]: Half life in DBA1 mouse brain at 5 mg/kg, po. Format: ADME, organism-based. Also on record: dose 5 mg/kg, route oral.
A short description of series [23]: Half life in DBA1 mouse spleen at 5 mg/kg, po. Format: ADME, organism-based. The arrangement: dose 5 mg/kg, route oral.
A short description of series [24]: AUC (infinity) in DBA1 mouse spleen at 5 mg/kg, po. Format: ADME, organism-based. The arrangement: dose 5 mg/kg, route oral, time infinity.
Series [25] in a line: Cmax in DBA1 mouse spleen at 5 mg/kg, po. Format: ADME, organism-based. The arrangement: dose 5 mg/kg, route oral.
The nature of series [26]: AUC (infinity) in DBA1 mouse lymph nodes at 5 mg/kg, po. The series is classed as ADME, organism-based, Lymph node. The arrangement: time infinity, dose 5 mg/kg, route oral.
A short description of series [27]: AUC in CD-1 mouse at 25 mg/kg, po. As to conditions: plasma. The series is classed as ADME, organism-based. Also on record: dose 25 mg/kg, route oral.
Series [28] deals with Spleen. The series is described as follows: Drug uptake in human NCI-N87 cell xenografted mouse spleen at 6 to 12 mg/kg, po administered as a single dose at 6 to 24 hrs. Also on record: route oral. As to conditions: in vivo. The series is classed as ADME, organism-based.
The nature of series [29]: Cmax in DBA1 mouse brain at 5 mg/kg, po. The series is classed as ADME, organism-based. The arrangement: dose 5 mg/kg, route oral.
Series [30] in a line: Tmax in DBA1 mouse plasma at 5 mg/kg, po. Format: ADME, organism-based. The arrangement: dose 5 mg/kg, route oral.
Series [31] is described as follows: Initial Cmax in CD-1 mouse at 100 mg/kg, po. The series is classed as ADME, organism-based. Also on record: dose 100 mg/kg, route oral. As to conditions: in vivo.
Series [32] in a line: Tmax in CD-1 mouse at 100 mg/kg, po. The series is classed as ADME, organism-based. The arrangement: dose 100 mg/kg, route oral. As to conditions: in vivo.
For series [33], the system named is Mus musculus. The series can be described thus: Dose normalized AUC in CD-1 mouse at 100 mg/kg, po. The arrangement: dose 100 mg/kg, route oral. The series is classed as ADME, organism-based. Conditions: in vivo.
The nature of series [34]: Half life in CD-1 mouse at 5 mg/kg, iv. The series is classed as ADME, organism-based. The arrangement: dose 5 mg/kg, route intravenous. Conditions: in vivo.
A short description of series [35]: Initial Cmax in CD-1 mouse at 5 mg/kg, iv. The series is classed as ADME, organism-based. The arrangement: dose 5 mg/kg, route intravenous. Conditions: in vivo.
Series [36] is described as follows: AUC in CD-1 mouse at 5 mg/kg, iv. Also on record: dose 5 mg/kg, route intravenous. Format: ADME, organism-based. Conditions: plasma.
Series [37] concerns Mus musculus. The series is described as follows: Dose normalized AUC in CD-1 mouse at 5 mg/kg, iv. Conditions: in vivo. Format: ADME, organism-based. The arrangement: dose 5 mg/kg, route intravenous.

For the molecule `COc1c(C)cnc(Cn2cc(C#CCC(C)(C)O)c3c(Cl)nc(N)nc32)c1C`, the Tmax in series [1] amounted to 30 min; in series [2] it was 1 h; in series [5] it was 30 min; in series [30], 4.98 min. Moreover, the Cmax in [3] was found to be 835 ng/mL; in series [15], 1560 ng/mL; in [21], 2140 ng/mL; in [25], 1890 ng/mL; in [29], 1450 ng/mL. In [4], this molecule yielded an MTD of 30 mg/kg. The CLint scaled in series [6] amounted to 276 mL/min/kg; in series [7], 119 mL/min/kg; in series [16], 727 mL/min/kg. In series [8], the AUC/dose was 177 ng·h/mL/mg/kg. In addition, the Drug uptake entry in series [9], in [13], in series [18] and in series [28] was “Active” in each case. Besides, the half-life in [10] is 90 min; in series [14] it was 96 min; in [20] it was 72 min; in series [22] it was 126 min; in series [23], 120 min. This molecule also returned an MTD at 4 weeks in series [11] of 10 mg/kg. The AUC(0-inf) in [12] amounted to 4710 ng·h/mL; in series [17], 2120 ng·h/mL; in series [24] it was 8160 ng·h/mL; in [26], 5190 ng·h/mL. Besides, the Papp A→B in series [19] was 34.7 ×10⁻⁶ cm/s. The molecule also showed an AUC in [27] of 4420 ng·h/mL.
For `COc1c(C)cnc(Cn2cnc3c(Cl)nc(N)nc32)c1C` [BIIB021], the Cmax in series [31] was determined as 10000 ng/mL. For the same molecule, the Papp A→B in series [19] came to 20 ×10⁻⁶ cm/s. Further, in [32], the Tmax turned out to be 4.98 min. Besides, in series [33], the AUC/dose turned out to be 48 ng·h/mL/mg/kg.
As for `CCNC(=O)c1noc(-c2cc(C(C)C)c(O)cc2O)c1-c1ccc(CN2CCOCC2)cc1` [LUMINESPIB], the CLint scaled was determined as 219 mL/min/kg in series [6] and 39 mL/min/kg in [7]. Further, the half-life in [34] was 396 min. The Papp A→B in series [19] worked out at 1.9 ×10⁻⁶ cm/s. Also, the peak level in series [35] (Cmax) was 2180 ng/mL. Further, in series [36], the AUC is 2410 ng·h/mL. In addition, in series [37], the AUC/dose came out at 481 ng·h/mL/mg/kg.
Take `CC1(C)CC(=O)c2c(C(F)(F)F)nn(-c3ccc(C(N)=O)c(N[C@H]4CC[C@H](O)CC4)c3)c2C1` [SNX-2112]: the Tmax in [1] was found to be 60 min. In addition, the CLint scaled in series [6] worked out at 54 mL/min/kg; in series [7] it was 54 mL/min/kg; in series [16], 301 mL/min/kg. In [8], this molecule showed an AUC/dose of 341 ng·h/mL/mg/kg. In addition, the half-life in series [10] was 174 min. Also, in series [15], the concentration peaked (Cmax) at 1720 ng/mL. In series [19], the Papp A→B was 1.1 ×10⁻⁶ cm/s. In series [27], the AUC was 8520 ng·h/mL.
On to `C=CCNC1=C2C[C@@H](C)C[C@H](OC)[C@H](O)[C@@H](C)/C=C(\C)[C@H](OC(N)=O)[C@@H](OC)/C=C\C=C(/C)C(=O)NC(=CC1=O)C2=O` [TANESPIMYCIN], for which the MTD in series [4] came to 60 mg/kg.

By Tmax is commonly meant the time at which the peak concentration occurs. As usually defined, the Cmax is the peak of the concentration-time curve. In general, half-life refers to the time in which the quantity being followed falls by half. Read a high half-life as slow loss. A word on the AUC(0-inf): it is total exposure, with the tail of the curve extrapolated. Read a high AUC(0-inf) as more exposure. What is called Papp A→B is how fast a substance crosses the layer from the apical side. The term AUC denotes concentration integrated over time.
